Reference: ChEMBL document CHEMBL1141233, “3-(5-Chloro-2,4-dihydroxyphenyl)-pyrazole-4-carboxamides as inhibitors of the Hsp90 molecular chaperone” (Bioorg Med Chem Lett, 2005)

Legend:
HCT-116 = assay: Inhibition of cell proliferation in HCT116 human colon cancer cell line; format: functional
Heat shock protein HSP90 = Heat shock protein HSP90 (Homo sapiens, UniProt P07900+P08238); assay: Binding affinity to Hsp90 by fluorescent polarization assay; format: protein assay

SMILES	GI50 (HCT-116) [µM]	IC50 (Heat shock protein HSP90) [µM]
NS(=O)(=O)c1ccc(CNC(=O)c2cn[nH]c2-c2cc(Cl)c(O)cc2O)cc1	> 80	–
O=C(Nc1ccccc1)c1cn[nH]c1-c1cc(Cl)c(O)cc1O	–	7.1
O=C(NCc1ccccc1)c1cn[nH]c1-c1cc(Cl)c(O)cc1O	> 80	12.8
COc1cccc(CNC(=O)c2c[nH]nc2-c2cc(Cl)c(O)cc2O)c1	> 80	10.7
O=C(Nc1ccc(O)cc1)c1c[nH]nc1-c1cc(Cl)c(O)cc1O	> 80	14.7
CC(=O)c1ccc(NC(=O)c2cn[nH]c2-c2cc(Cl)c(O)cc2O)cc1	11.6	–
COc1cccc(NC(=O)c2c[nH]nc2-c2cc(Cl)c(O)cc2O)c1	> 80	11.7
COc1ccc(NC(=O)c2c[nH]nc2-c2cc(Cl)c(O)cc2O)cc1	> 80	6
O=C(NCc1ccc(F)cc1)c1cn[nH]c1-c1cc(Cl)c(O)cc1O	56.2	5.35
COc1ccc(CNC(=O)c2c[nH]nc2-c2cc(Cl)c(O)cc2O)cc1	60.7	6
O=C(NCc1ccco1)c1cn[nH]c1-c1cc(Cl)c(O)cc1O	–	35.6
CC(=O)Nc1ccc(NC(=O)c2c[nH]nc2-c2cc(Cl)c(O)cc2O)cc1	59.7	31.5
O=C(Nc1ccccn1)c1cn[nH]c1-c1cc(Cl)c(O)cc1O	–	> 50
O=C(Nc1ccc(Cl)cc1)c1cn[nH]c1-c1cc(Cl)c(O)cc1O	> 80	6.9
O=C(NCc1cccc(C(F)(F)F)c1)c1cn[nH]c1-c1cc(Cl)c(O)cc1O	45	5.4
COc1ccc(N(C)C(=O)c2c[nH]nc2-c2cc(Cl)c(O)cc2O)cc1	–	> 50
